Values after ≈ are worked out from the molar mass of the structure shown. Like-named read-outs stand apart in the source and are kept apart here.
Columns and labels:
Format in all cases: cell-based
[1] = test system: E. coli ATCC 25922 wild type and mutants; test: MIC in M9 minimal media; conditions: Escherichia coli, read-out: MICs in M9 minimal media
Method: (§1) Spontaneous Resistance Frequency was determined in vitro for GSK2251052 and the resistance mutants in E. coli ATCC 25922, K. pneumoniae ATCC 13883, and P. aeruginosa ATCC 27853 strains were characterized. GSK2251052 was prepared as described in U.S. Pat. No. 7,816,344 (the entire contents of which are hereby incorporated by reference herein). LB broth, Mueller Hinton II broth (adjusted), and Difco noble agar were obtained from Becton Dickinson (Cockeysville, Md., USA). M9 minimal broth containing 1×M9 salt, 0.5 μg/ML thiamine, 1 mM MgSO4, 0.1 mM CaCl2, 2% glucose, was obtained from Teknova (Hollister, Calif., USA). Antibacterial agents ciprofloxacin, ceftazidime, chloramphenicol, gentamycin, kanamycin, polymixin B, tobramycin and trimethoprim, and amino acids were obtained from Sigma Chemicals (St. Louis, Mo., USA). Strains were obtained from ATCC (Manassas, Va., USA).
(§2) Susceptibility tests were performed following the recommendations for aerobic bacteria (M7-A7) from the Clinical and Laboratories Standards Institute (CLSI).
(§3) The aminoacyl-tRNA synthetase enzyme, LeuRS, ensures the correct amino acid, leucine, is attached to tRNA^Leu. The LeuRS synthetic active site is capable of aminoacylating tRNA^Leu with amino acids structural similar to leucine (norvaline, norleucine, isoleucine and methionine). These mischarged tRNA^Leu are hydrolyzed by the editing domain, thus preventing the deleterious incorporation of incorrect amino acids into the growing polypeptide. The laboratory generated mutants were further tested for their ability to grow in defined media with exogenously added amino acids. Norvaline and norleucine, structurally similar to leucine, were tested in M9 minimal media. […]

[2] = test system: K. pneumoniae ATCC 13883 wild type and mutants; test: MIC in M9 minimal media; conditions: Klebsiella pneumoniae, read-out: MICs in M9 minimal media
Method: as §1, §2, §3

[3] = test system: P. aeruginosa ATCC 27853 wild type and mutants; test: MIC in M9 minimal media; conditions: Pseudomonas aeruginosa, read-out: MICs in M9 minimal media
Method: as §1, §2, §3

[4] = test system: P. aeruginosa ATCC 27853, E. coli ATCC 25922 and K. pneumoniae ATCC 13883; test: MIC in M9 minimal media, three strains summarised; conditions: all GSK2251052 resistant mutants
Method: as §1, §2
The aminoacyl-tRNA synthetase enzyme, LeuRS, ensures the correct amino acid, leucine, is attached to tRNA^Leu. The LeuRS synthetic active site is capable of aminoacylating tRNA^Leu with amino acids structural similar to leucine (norvaline, norleucine, isoleucine and methionine). […]

[5] = test system: E. coli isolates from subject E. coli 1; test: MIC in M9 minimal media of clinical isolates, subject E. coli 1; conditions: Escherichia coli
Method: The E. coli and P. mirabilis strains were cultured on Trypticase Soy Agar/5% blood plates (Becton Dickinson BBL), in cation adjusted Mueller-Hinton II Broth, or in M9 minimal salts (Becton Dickinson) broth containing 0.4% glucose and 200 uM MgSO4. L-Norvaline (Sigma-Aldrich) was prepared at a concentration of 6.4 mg/ml in […], in a final volume of approx 0.5 ml, and stored at −20° C. until required.
Minimum inhibitory concentrations (MICs) were determined using the CLSI (Clinical and Laboratory Standards Institute, formerly NCCLS) recommended broth microdilution methodology [NCCLS, 2003] using defined media.
Throughout this study E. coli and P. mirabilis strains were cultured on Trypticase Soy Agar/5% blood plates, on M9 salts/1.2% Bacto Agar plates, in Cation Adjusted Mueller-Hinton II Broth (CAMHB), or in M9 Minimal Salt Broth containing 0.4% glucose and 200 μM MgSO4. GSK2251052 and norvaline were prepared at a concentration of 6.4 mg/mL (free base) in 100% DMSO and 100% water respectively, aliquoted in 0.5 mL individual stocks, and stored at −20° C. until required.
Minimum inhibitory concentrations (MICs) were determined for each organism using the CLSI (Clinical and Laboratory Standards Institute) recommended broth microdilution methodology [CLSI, 2009].
Strains tested are detailed in Table 15. MICs for norvaline and GSK2251052 could only be determined for E. coli isolates from subject E. coli 1 (Table 16) as M9 Minimal Media could not sustain growth of E. coli isolates from subject E. coli 2 (isolates 2a-2o) or P. mirabilis isolates (isolates 3a-3c) from subject E. coli 3. […] This phenotype is consistent with a mutation in the editing site of LeuRS, which could also be responsible for the concomitant decrease in susceptibility to GSK2251052 observed in isolates from Days 2, 3 and 4 (Table 16).

[6] = test system: Escherichia coli 1161435 parent and mutant strains B4, B26 and B35; test: Sensitivity to leucine analogs in MH and M9 media
E. coli = test: Inhibition of bacterial growth on agar plates; conditions: preliminary studies

CCC[C@H](N)C(=O)O [Norvaline, L-Norvaline] was tested, and the MIC ([1]; ATCC25922, E 101(leuRS Y246H)) was 4 mg/L (≈ 34.1 µM), the MIC ([1]; ATCC25922, E 102(leuRS D345G)) was 0.5 mg/L (≈ 4.27 µM) and the MIC ([1]; ATCC25922, E 107(leuRS G229S)) was 1 mg/L (≈ 8.54 µM). For the same molecule, the MIC ([1]; ATCC25922, E. coli ATCC25922) was 32 mg/L (≈ 273 µM), the MIC ([2]; ATCC13883, K 104(leuRS D345Y)) was 1 mg/L (≈ 8.54 µM) and the MIC ([2]; ATCC13883, K 105(leuRS G229R)) was 4 mg/L (≈ 34.1 µM). It also gave an MIC ([2]; ATCC13883, K 107(leuRS S227F)) of 4 mg/L (≈ 34.1 µM), an MIC ([2]; ATCC13883, K 108(leuRS T248P)) of 2 mg/L (≈ 17.1 µM) and an MIC ([2]; ATCC13883, K 110(leuRS V338L)) of 4 mg/L (≈ 34.1 µM). It also gave an MIC ([2]; ATCC13883, Klebsiella pneumoniae ATCC13883) of 16 mg/L (≈ 137 µM), an MIC ([3]; ATCC27853, P 101 (leuRS T256P)) of 4 mg/L (≈ 34.1 µM) and an MIC ([3]; ATCC27853, P 106 (leuRS V342M)) of 0.25 mg/L (≈ 2.13 µM). The MIC ([3]; ATCC27853, P 108 (leuRS T252P)) was 0.25 mg/L (≈ 2.13 µM), the MIC ([3]; ATCC27853, P. aeruginosa ATCC27853) was over 64 mg/L and the “sensitivity of the resistant mutants” value [4] was “High sensitivity”. It also gave an MIC ([5]; 24 h, Isolate 1a, Blood, Day 1, read-out: MIC in M9 Minimal Media) of 4 mg/L (≈ 34.1 µM), an MIC ([5]; 24 h, Isolate 1b, Urine, Day 1, read-out: MIC in M9 Minimal Media) of 2 mg/L (≈ 17.1 µM) and an MIC ([5]; 24 h, subject E. Coli 1, day 1, first line, no LeuRS change, read-out: Norvaline MIC in M9) of 4 mg/L (≈ 34.1 µM). For the same molecule, the MIC ([5]; 24 h, subject E. Coli 1, day 1, second line, no LeuRS change, read-out: Norvaline MIC in M9) was 2 mg/L (≈ 17.1 µM), the MIC ([5]; 48 h, Isolate 1c, Blood, Day 2, read-out: MIC in M9 Minimal Media) was 0.5 mg/L (≈ 4.27 µM) and the MIC ([5]; 72 h, read-out: Norvaline MIC in M9) was 0.5 mg/L (≈ 4.27 µM). The MIC ([5]; 96 h, Isolate 1e, Blood, Day 4, read-out: MIC in M9 Minimal Media) was 0.5 mg/L (≈ 4.27 µM), the MIC ([5]; Isolate 1d, Blood, Day 3, read-out: MIC in M9 Minimal Media) was 0.5 mg/L (≈ 4.27 µM) and the MIC (sensitivity to leucine analogs) ([6]; 1161435 Parent, M9) was over 128 µg/mL. The MIC (sensitivity to leucine analogs) ([6]; 1161435 Parent, MH) was over 128 µg/mL, the MIC (sensitivity to leucine analogs) ([6]; B4 (P339L), M9) was 2 µg/mL and the MIC (sensitivity to leucine analogs) ([6]; B4 (P339L), MH) was over 128 µg/mL. The MIC (sensitivity to leucine analogs) ([6]; B26 (R334H), M9) was 16 µg/mL, the MIC (sensitivity to leucine analogs) ([6]; B26 (R334H), MH) was over 128 µg/mL and the MIC (sensitivity to leucine analogs) ([6]; B35 (D251N), M9) was 64 µg/mL. The MIC (sensitivity to leucine analogs) ([6]; B35 (D251N), MH) was over 128 µg/mL, the “sensitivity of the mutants” value ([6]; mutant strains in M9 minimal media) was “most sensitivity” and the “concentration at which a bacterial lawn could still be observed” value (E. coli) was over 64 µg/mL.

Reference: US9889146B2, “Benzoxaborole compounds and uses thereof” (priority 2012, dated 2018)
